Assay results reported in US9006455B2 (Bristol-Myers Squibb Company, priority 2009, dated 2015).

Test system: HCV 1b genotype
Test: HCV Replicon assay (HCV 1b genotype)
Format: cell-based
Conditions: Hepatitis C virus; HCV 1b genotype replicon; read-out: EC50
Protocol: An HCV Replicon assay was utilized in the present disclosure, and was prepared, conducted and validated as described in commonly owned PCT/US2006/022197 and in O'Boyle et al., Antimicrob. Agents Chemother., 49(4):1346-1353 (April 2005). Assay methods incorporating luciferase reporters have also been used as described (Apath.com).
HCV-neo replicon cells and replicon cells containing resistance substitutions in the NS5A region were used to test the currently described family of compounds. The compounds were determined to have differing degrees of reduced inhibitory activity on cells containing mutations vs. the corresponding inhibitory potency against wild-type cells. Thus, the compounds of the present disclosure can be effective in inhibiting the function of the HCV NS5A protein and are understood to be as effective in combinations as previously described in application PCT/US2006/022197 and commonly owned WO 04/014852. It should be understood that the compounds of the present disclosure can inhibit multiple genotypes of HCV. […] In one embodiment, compounds of the present disclosure are inhibitory versus 1a, 1b, 2a, 2b, 3a, 4a, and 5a genotypes.

Structure (SMILES)	EC50 [nM]
COC(=O)N[C@H](C(=O)N1CCC[C@H]1c1nc2ccc(-c3ccc4cc(-c5ccc6nc([C@@H]7CCCN7C(=O)[C@@H](NC(=O)OC)C(C)C)[nH]c6c5)ccc4c3)cc2[nH]1)C(C)C [Example 2, Methyl((1S)-1-(((2S)-2-(5-(6-(2-((2S)-1-((2S)-2-((methoxycarbonyl)amino)-3-methylbutanoyl)-2-pyrrolidinyl)-1H-benzimidazol-5-yl)-2-naphthyl)-1H-benzimidazol-2-yl)-1-pyrrolidinyl)carbonyl)-2-methylpropyl)carbamate]	0.00218
COC(=O)N[C@H](C(=O)N1CCC[C@H]1c1nc2ccc(-c3ccc4cc(-c5ccc6nc([C@@H]7CCCN7C(=O)[C@@H](NC(=O)OC)C7CC7)[nH]c6c5)ccc4c3)cc2[nH]1)C1CC1 [Example 11, Dimethyl(2,6-naphthalenediylbis(1H-benzimidazole-5,2-diyl(2S)-2,1-pyrrolidinediyl((1S)-1-cyclopropyl-2-oxo-2,1-ethanediyl)))biscarbamate]	0.0182
COC(=O)N[C@H](C(=O)N1CCC[C@@H]1c1nc2ncc(-c3ccc4cc(-c5cnc6nc([C@@H]7CCCN7C(=O)[C@@H](NC(=O)OC)C(C)C)[nH]c6c5)ccc4c3)cc2[nH]1)C(C)C [Example 23, Methyl((1S)-1-(((2R)-2-(6-(6-(2-((2S)-1-((2S)-2-((methoxycarbonyl)amino)-3-methylbutanoyl)-2-pyrrolidinyl)-1H-imidazo[4,5-b]pyridin-6-yl)-2-naphthyl)-1H-imidazo[4,5-b]pyridin-2-yl)-1-pyrrolidinyl)carbonyl)-2-methylpropyl)carbamate]	0.888

Same assay, conditions: Hepatitis C virus; HCV 1b genotype replicon; read-out: Range (EC50 values against HCV 1b)

Structure (SMILES)	EC50 [nM]
COC(=O)N[C@H](C(=O)N1C(c2ncc(-c3ccc4cc(-c5cccc(-c6c[nH]c([C@@H]7C[C@H]8C[C@H]8N7C(=O)[C@@H](NC(=O)OC)C(C)C)n6)c5)ccc4c3)[nH]2)CC2CC21)C(C)C (stereo in doubt) [Example 51, Methyl((1S)-1-(((1S,3R,5S)-3-(4-(6-(3-(2-((1R,3S,5R)-2-((2S)-2-((methoxycarbonyl)amino)-3-methylbutanoyl)-2-azabicyclo[3.1.0]hex-3-yl)-1H-imidazol-4-yl)phenyl)-2-naphthyl)-1H-imidazol-2-yl)-2-azabicyclo[3.1.0]hex-2-yl)carbonyl)-2-methylpropyl)carbamate]	0.0101 to 1
COC(=O)N[C@H](C(=O)N1CCC[C@H]1c1nc2cc(-c3ccc4ccc(-c5ccc6nc([C@@H]7CCCN7C(=O)[C@@H](NC(=O)OC)C(C)C)[nH]c6c5)cc4c3)ccc2[nH]1)C(C)C [Example 1, Methyl((1S)-1-(((2S)-2-(5-(7-(2-((2S)-1-((2S)-2-((methoxycarbonyl)amino)-3-methylbutanoyl)-2-pyrrolidinyl)-1H-benzimidazol-5-yl)-2-naphthyl)-1H-benzimidazol-2-yl)-1-pyrrolidinyl)carbonyl)-2-methylpropyl)carbamate]	1.01 to 1000
COC(=O)N[C@H](C(=O)N1CCC[C@H]1c1ncc(-c2ccc(-c3ccc4cc(-c5ccc6nc([C@@H]7CCCN7C(=O)[C@@H](NC(=O)OC)C(C)C)[nH]c6c5)ccc4c3)cc2)[nH]1)C(C)C [Example 3, Methyl((1S)-1-(((2S)-2-(4-(4-(6-(2-(1-((2S)-2-((methoxycarbonyl)amino)-3-methylbutanoyl)-2-pyrrolidinyl)-1H-benzimidazol-5-yl)-2-naphthyl)phenyl)-1H-imidazol-2-yl)-1-pyrrolidinyl)carbonyl)-2-methylpropyl)carbamate]	0.0101 to 1
COC(=O)N[C@H](C(=O)N1CCC[C@H]1c1ncc(-c2ccc(-c3ccc4ccc(-c5ccc6nc([C@@H]7CCCN7C(=O)[C@@H](NC(=O)OC)C(C)C)[nH]c6c5)cc4c3)cc2)[nH]1)C(C)C [Example 4, Methyl((1S)-1-(((2S)-2-(4-(4-(7-(2-((2S)-1-((2S)-2-((methoxycarbonyl)amino)-3-methylbutanoyl)-2-pyrrolidinyl)-1H-benzimidazol-5-yl)-2-naphthyl)phenyl)-1H-imidazol-2-yl)-1-pyrrolidinyl)carbonyl)-2-methylpropyl)carbamate]	1.01 to 1000
COC(=O)N[C@@H](C)C(=O)N1CCC[C@H]1c1nc2ccc(-c3ccc4cc(-c5ccc6nc([C@@H]7CCCN7C(=O)[C@H](C)NC(=O)OC)[nH]c6c5)ccc4c3)cc2[nH]1 [Example 5, Methyl((1S)-2-((2S)-2-(5-(6-(2-((2S)-1-(N-(methoxycarbonyl)-L-alanyl)-2-pyrrolidinyl)-1H-benzimidazol-5-yl)-2-naphthyl)-1H-benzimidazol-2-yl)-1-pyrrolidinyl)-1-methyl-2-oxoethyl)carbamate]	0.0101 to 1
O=C([C@@H](c1ccccc1)N1CCCCC1)N1CCC[C@H]1c1nc2ccc(-c3ccc4cc(-c5ccc6nc([C@@H]7CCCN7C(=O)[C@@H](c7ccccc7)N7CCCCC7)[nH]c6c5)ccc4c3)cc2[nH]1 [Example 7, 5,5′-(2,6-Naphthalenediyl)bis(2-((2S)-1-((2R)-2-phenyl-2-(1-piperidinyl)acetyl)-2-pyrrolidinyl)-1H-benzimidazole)]	0.0101 to 1
CN(C)[C@@H](C(=O)N1CCC[C@H]1c1nc2ccc(-c3ccc4cc(-c5ccc6nc([C@@H]7CCCN7C(=O)[C@@H](c7ccccc7)N(C)C)[nH]c6c5)ccc4c3)cc2[nH]1)c1ccccc1 [Example 8, (1R)-2-((2S)-2-(5-(6-(2-((2S)-1-((2R)-2-(Dimethylamino)-2-phenylacetyl)-2-pyrrolidinyl)-1H-benzimidazol-6-yl)-2-naphthyl)-1H-benzimidazol-2-yl)-1-pyrrolidinyl)-N,N-dimethyl-2-oxo-1-phenylethanamine]	0.0101 to 1
COC(=O)N[C@H](C(=O)N1CCC[C@H]1c1nc2ccc(-c3ccc4cc(-c5ccc6nc([C@@H]7CCCN7C(=O)[C@@H](NC(=O)OC)C7CC7)[nH]c6c5)ccc4c3)cc2[nH]1)C1CC1 [Example 11, Dimethyl(2,6-naphthalenediylbis(1H-benzimidazole-5,2-diyl(2S)-2,1-pyrrolidinediyl((1S)-1-cyclopropyl-2-oxo-2,1-ethanediyl)))biscarbamate]	0.0101 to 1
COC(=O)N[C@@H](C(=O)N1CCC[C@H]1c1nc2cc(-c3ccc4ccc(-c5ccc6nc([C@@H]7CCCN7C(=O)[C@H](NC(=O)OC)c7ccccc7)[nH]c6c5)cc4c3)ccc2[nH]1)c1ccccc1 [Example 12, Dimethyl(2,7-naphthalenediylbis(1H-benzimidazole-5,2-diyl(2S)-2,1-pyrrolidinediyl((1R)-2-oxo-1-phenyl-2,1-ethanediyl)))biscarbamate]	1.01 to 1000
COC(=O)N[C@@H](C)C(=O)N1CCC[C@H]1c1nc2cc(-c3ccc4ccc(-c5ccc6nc([C@@H]7CCCN7C(=O)[C@H](C)NC(=O)OC)[nH]c6c5)cc4c3)ccc2[nH]1 [Example 13, Methyl((1S)-2-((2S)-2-(5-(7-(2-((2S)-1-(N-(methoxycarbonyl)-L-alanyl)-2-pyrrolidinyl)-1H-benzimidazol-5-yl)-2-naphthyl)-1H-benzimidazol-2-yl)-1-pyrrolidinyl)-1-methyl-2-oxoethyl)carbamate]	1.01 to 1000
COC(=O)N[C@@H](C(=O)N1CCC[C@H]1c1nc2cc(-c3ccc4ccc(-c5ccc6nc([C@@H]7CCCN7C(=O)[C@H](NC(=O)OC)C(C)C)[nH]c6c5)cc4c3)ccc2[nH]1)C(C)C [Example 14, Methyl((1R)-1-(((2S)-2-(5-(7-(2-((2S)-1-((2R)-2-((methoxycarbonyl)amino)-3-methylbutanoyl)-2-pyrrolidinyl)-1H-benzimidazol-5-yl)-2-naphthyl)-1H-benzimidazol-2-yl)-1-pyrrolidinyl)carbonyl)-2-methylpropyl)carbamate]	1.01 to 1000
O=C([C@@H](c1ccccc1)N1CCCCC1)N1CCC[C@H]1c1nc2cc(-c3ccc4ccc(-c5ccc6nc([C@@H]7CCCN7C(=O)[C@@H](c7ccccc7)N7CCCCC7)[nH]c6c5)cc4c3)ccc2[nH]1 [Example 15, 5,5′-(2,7-Naphthalenediyl)bis(2-((2S)-1-((2R)-2-phenyl-2-(1-piperidinyl)acetyl)-2-pyrrolidinyl)-1H-benzimidazole)]	0.0101 to 1
COC(=O)N[C@H](C(=O)N1CCC[C@H]1c1ncc(-c2ccc3ccc(-c4ccc5nc([C@@H]6CCCN6C(=O)[C@@H](NC(=O)OC)C(C)C)[nH]c5c4)cc3c2)[nH]1)C(C)C [Example 17, Methyl((1S)-1-(((2S)-2-(4-(7-(2-((2S)-1-((2S)-2-((methoxycarbonyl)amino)-3-methylbutanoyl)-2-pyrrolidinyl)-1H-benzimidazol-5-yl)-2-naphthyl)-1H-imidazol-2-yl)-1-pyrrolidinyl)carbonyl)-2-methylpropyl)carbamate]	1.01 to 1000
CCN(CC)[C@@H](C(=O)N1[C@@H]2C[C@@H]2C[C@H]1c1nc2ccc(-c3ccc4cc(-c5ccc6nc([C@@H]7C[C@H]8C[C@H]8N7C(=O)[C@@H](c7ccccc7)N(CC)CC)[nH]c6c5)ccc4c3)cc2[nH]1)c1ccccc1 [Example 19, (1R)-2-((1R,3S,5R)-3-(5-(6-(2-((1R,3S,5R)-2-((2R)-2-(Diethylamino)-2-phenylacetyl)-2-azabicyclo[3.1.0]hex-3-yl)-1H-benzimidazol-6-yl)-2-naphthyl)-1H-benzimidazol-2-yl)-2-azabicyclo[3.1.0]hex-2-yl)-N,N-diethyl-2-oxo-1-phenylethanamine]	0.0101 to 1
COC(=O)N[C@H](C(=O)N1CCC[C@H]1c1nc2ncc(-c3ccc4cc(-c5cnc6nc([C@@H]7CCCN7C(=O)[C@@H](NC(=O)OC)C(C)C)[nH]c6c5)ccc4c3)cc2[nH]1)C(C)C [Example 22, Methyl((1S)-1-(((2S)-2-(6-(6-(2-((2S)-1-((2S)-2-((methoxycarbonyl)amino)-3-methylbutanoyl)-2-pyrrolidinyl)-1H-imidazo[4,5-b]pyridin-6-yl)-2-naphthyl)-1H-imidazo[4,5-b]pyridin-2-yl)-1-pyrrolidinyl)carbonyl)-2-methylpropyl)carbamate]	0.0101 to 1
COC(=O)N[C@H](C(=O)N1CCC[C@@H]1c1nc2ncc(-c3ccc4cc(-c5cnc6nc([C@@H]7CCCN7C(=O)[C@@H](NC(=O)OC)C(C)C)[nH]c6c5)ccc4c3)cc2[nH]1)C(C)C [Example 23, Methyl((1S)-1-(((2R)-2-(6-(6-(2-((2S)-1-((2S)-2-((methoxycarbonyl)amino)-3-methylbutanoyl)-2-pyrrolidinyl)-1H-imidazo[4,5-b]pyridin-6-yl)-2-naphthyl)-1H-imidazo[4,5-b]pyridin-2-yl)-1-pyrrolidinyl)carbonyl)-2-methylpropyl)carbamate]	0.0101 to 1
